Experimental data taken from PubChem BioAssay AID1963842 (Molecular Pharmacology Branch, DTP, NCI, 2024).

Tested on: 677734-321-R-J1-PDC complex spheroid viability
Assay: Anticancer human tumor 677734-321-R-J1-PDC patient-derived soft tissue sarcoma cell line growth inhibition [POLQ]
Details: for IC50: curve of first compound; for viability, T/C: stronger effect = lower value; active means viability on the fitted dose curve at most 10% of control; inactive means the rest
Method in brief: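 PDC + HUVEC + MSC complex spheroids; POLQ inhibitors ± partner drugs; top conc. at/near clinical Cmax, else 10 microM (SN-38 1 microM), half-log dilutions; 37 degrees C, 5% CO2.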

[1] = second compound 0.0316 µM, first compound 0.0316 µM
[2] = second compound 0.0316 µM, first compound 0.1 µM
[3] = second compound 0.0316 µM, first compound 0.316 µM
[4] = second compound 0.0316 µM, first compound 1 µM
[5] = second compound 0.0316 µM, first compound 3.16 µM
[6] = second compound 0.0316 µM, first compound 10 µM
[7] = second compound 0.1 µM, first compound 0.0316 µM
[8] = second compound 0.1 µM, first compound 0.1 µM
[9] = second compound 0.1 µM, first compound 0.316 µM
[10] = second compound 0.1 µM, first compound 1 µM
[11] = second compound 0.1 µM, first compound 3.16 µM
[12] = second compound 0.1 µM, first compound 10 µM
[13] = second compound 0.316 µM, first compound 0.0316 µM
[14] = second compound 0.316 µM, first compound 0.1 µM
[15] = second compound 0.316 µM, first compound 0.316 µM
[16] = second compound 0.316 µM, first compound 1 µM
[17] = second compound 0.316 µM, first compound 3.16 µM
[18] = second compound 0.316 µM, first compound 10 µM
[19] = second compound 1 µM, first compound 0.0316 µM
[20] = second compound 1 µM, first compound 0.1 µM
[21] = second compound 1 µM, first compound 0.316 µM
[22] = second compound 1 µM, first compound 1 µM
[23] = second compound 1 µM, first compound 3.16 µM
[24] = second compound 1 µM, first compound 10 µM
[25] = second compound 3.16 µM, first compound 0.0316 µM
[26] = second compound 3.16 µM, first compound 0.1 µM
[27] = second compound 3.16 µM, first compound 0.316 µM
[28] = second compound 3.16 µM, first compound 1 µM
[29] = second compound 3.16 µM, first compound 3.16 µM
[30] = second compound 3.16 µM, first compound 10 µM
[31] = second compound 10 µM, first compound 0.0316 µM
[32] = second compound 10 µM, first compound 0.1 µM
[33] = second compound 10 µM, first compound 0.316 µM
[34] = second compound 10 µM, first compound 1 µM
[35] = second compound 10 µM, first compound 3.16 µM
[36] = second compound 10 µM, first compound 10 µM
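Further: spheroids exposed to compounds for one week.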
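Wherever viability, T/C is given: 100% = vehicle DMSO treated spheroids.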

CCc1cc2c(N3CCc4c(cc(Cn5ccnc5)cc4-c4cn(C)nc4C(F)(F)F)C3=O)cc(C)nc2c(OC)n1 + Cc1cccc(N(C)C(=O)C2C(O)CCN2c2nc(C)cc(C(F)(F)F)c2C#N)c1
inactive: viability, T/C [1] 104% | viability, T/C [2] 116% | viability, T/C [3] 84% | viability, T/C [4] 94% | viability, T/C [5] 65.5% | viability, T/C [6] 39.3% | viability, T/C [7] 97.3% | viability, T/C [8] 94.7% | viability, T/C [9] 99.7% | viability, T/C [10] 75.6% | viability, T/C [11] 66.3% | viability, T/C [12] 33.1% | viability, T/C [13] 92.4% | viability, T/C [14] 102% | viability, T/C [15] 98.8% | viability, T/C [16] 81.8% | viability, T/C [17] 58.8% | viability, T/C [18] 28.5% | viability, T/C [19] 111% | viability, T/C [20] 106% | viability, T/C [21] 92.2% | viability, T/C [22] 88.1% | viability, T/C [23] 62.7% | viability, T/C [24] 31.6% | viability, T/C [25] 101% | viability, T/C [26] 98.6% | viability, T/C [27] 94% | viability, T/C [28] 82.3% | viability, T/C [29] 52.1% | viability, T/C [30] 31.8% | viability, T/C [31] 92.5% | viability, T/C [32] 76.1% | viability, T/C [33] 70.4% | viability, T/C [34] 58.4% | viability, T/C [35] 48.1% | viability, T/C [36] 34.1%
5.15 µM: IC50 (second compound 1 µM)
3.65 µM: IC50 (second compound 3.16 µM)
4.3 µM: IC50 (second compound 0.316 µM)
5.35 µM: IC50 (second compound 0.1 µM)
6.44 µM: IC50 (second compound 0.0316 µM)
2.27 µM: IC50 (second compound 10 µM)

Cn1ncnc1[C@H]1c2n[nH]c(=O)c3cc(F)cc(c23)N[C@@H]1c1ccc(F)cc1 + Cc1cccc(N(C)C(=O)C2C(O)CCN2c2nc(C)cc(C(F)(F)F)c2C#N)c1
inactive: viability, T/C (second compound 0.0316 µM, first compound 0.000316 µM) 110% | viability, T/C (second compound 0.0316 µM, first compound 0.001 µM) 102% | viability, T/C (second compound 0.0316 µM, first compound 0.00316 µM) 100% | viability, T/C (second compound 0.0316 µM, first compound 0.01 µM) 107% | viability, T/C [1] 104% | viability, T/C [2] 87.3% | viability, T/C (second compound 0.1 µM, first compound 0.000316 µM) 103% | viability, T/C (second compound 0.1 µM, first compound 0.001 µM) 99.7% | viability, T/C (second compound 0.1 µM, first compound 0.00316 µM) 102% | viability, T/C (second compound 0.1 µM, first compound 0.01 µM) 107% | viability, T/C [7] 101% | viability, T/C [8] 95.1% | viability, T/C (second compound 0.316 µM, first compound 0.000316 µM) 103% | viability, T/C (second compound 0.316 µM, first compound 0.001 µM) 97.8% | viability, T/C (second compound 0.316 µM, first compound 0.00316 µM) 102% | viability, T/C (second compound 0.316 µM, first compound 0.01 µM) 102% | viability, T/C [13] 102% | viability, T/C [14] 96.2% | viability, T/C (second compound 1 µM, first compound 0.000316 µM) 109% | viability, T/C (second compound 1 µM, first compound 0.001 µM) 96.4% | viability, T/C (second compound 1 µM, first compound 0.00316 µM) 96.9% | viability, T/C (second compound 1 µM, first compound 0.01 µM) 103% | viability, T/C [19] 96% | viability, T/C [20] 94.5% | viability, T/C (second compound 3.16 µM, first compound 0.000316 µM) 100% | viability, T/C (second compound 3.16 µM, first compound 0.001 µM) 98.7% | viability, T/C (second compound 3.16 µM, first compound 0.00316 µM) 101% | viability, T/C (second compound 3.16 µM, first compound 0.01 µM) 99% | viability, T/C [25] 102% | viability, T/C [26] 91.3% | viability, T/C (second compound 10 µM, first compound 0.000316 µM) 103% | viability, T/C (second compound 10 µM, first compound 0.001 µM) 92.1% | viability, T/C (second compound 10 µM, first compound 0.00316 µM) 101% | viability, T/C (second compound 10 µM, first compound 0.01 µM) 97.9% | viability, T/C [31] 91.3% | viability, T/C [32] 91.1%
> 0.1 µM: IC50 (second compound 0.0316 µM) | IC50 (second compound 0.1 µM) | IC50 (second compound 0.316 µM) | IC50 (second compound 1 µM) | IC50 (second compound 3.16 µM) | IC50 (second compound 10 µM)

C#Cc1c(F)ccc2cc(O)cc(-c3ncc4c(N5CC6CCC(C5)N6)nc(OCC56CCCN5CC(F)C6)nc4c3F)c12 (stereo not drawn) + Cc1cccc(N(C)C(=O)C2C(O)CCN2c2nc(C)cc(C(F)(F)F)c2C#N)c1
inactive: viability, T/C [1] 110% | viability, T/C [2] 101% | viability, T/C [3] 108% | viability, T/C [4] 103% | viability, T/C [5] 101% | viability, T/C [6] 102% | viability, T/C [7] 111% | viability, T/C [8] 106% | viability, T/C [9] 105% | viability, T/C [10] 100% | viability, T/C [11] 106% | viability, T/C [12] 107% | viability, T/C [13] 118% | viability, T/C [14] 97.5% | viability, T/C [15] 100% | viability, T/C [16] 100% | viability, T/C [17] 110% | viability, T/C [18] 104% | viability, T/C [19] 105% | viability, T/C [20] 97% | viability, T/C [21] 109% | viability, T/C [22] 100% | viability, T/C [23] 107% | viability, T/C [24] 102% | viability, T/C [25] 98.1% | viability, T/C [26] 102% | viability, T/C [27] 103% | viability, T/C [28] 109% | viability, T/C [29] 101% | viability, T/C [30] 107% | viability, T/C [31] 99.9% | viability, T/C [32] 104% | viability, T/C [33] 107% | viability, T/C [34] 99.2% | viability, T/C [35] 103% | viability, T/C [36] 98.8%
> 10 µM: IC50 (second compound 0.0316 µM) | IC50 (second compound 0.1 µM) | IC50 (second compound 0.316 µM) | IC50 (second compound 1 µM) | IC50 (second compound 3.16 µM) | IC50 (second compound 10 µM)

O=C(Nc1ccc(O)c(NS(=O)(=O)c2ccc(F)cc2)c1)c1ccc(-c2ccccc2)cc1 + Nc1ccc(C#CCN(C(=O)Cc2ncc(C(F)(F)F)cc2C(F)(F)F)c2ccc(F)cc2)nn1
3.59 µM: IC50 (second compound 0.316 µM)
4.08 µM: IC50 (second compound 1 µM)
4.84 µM: IC50 (second compound 0.1 µM)
4.07 µM: IC50 (second compound 3.16 µM)
3.82 µM: IC50 (second compound 10 µM)
inactive: viability, T/C [1] 106% | viability, T/C [2] 115% | viability, T/C [3] 97% | viability, T/C [4] 106% | viability, T/C [5] 68.7% | viability, T/C [6] 21.3% | viability, T/C [7] 106% | viability, T/C [8] 102% | viability, T/C [9] 94% | viability, T/C [10] 102% | viability, T/C [11] 69.4% | viability, T/C [12] 17.1% | viability, T/C [13] 104% | viability, T/C [14] 113% | viability, T/C [15] 110% | viability, T/C [16] 103% | viability, T/C [17] 53.5% | viability, T/C [18] 22.1% | viability, T/C [19] 114% | viability, T/C [20] 109% | viability, T/C [21] 104% | viability, T/C [22] 105% | viability, T/C [23] 58.6% | viability, T/C [24] 19.4% | viability, T/C [25] 119% | viability, T/C [26] 114% | viability, T/C [27] 101% | viability, T/C [28] 111% | viability, T/C [29] 58.2% | viability, T/C [30] 19.9% | viability, T/C [31] 109% | viability, T/C [32] 115% | viability, T/C [33] 109% | viability, T/C [34] 103% | viability, T/C [35] 56.5% | viability, T/C [36] 16.5%
4.98 µM: IC50 (second compound 0.0316 µM)
